Consider 1 substance from patent US20250134799A1, “COMPOSITION CONTAINING NERO DI TROIA POMACE EXTRACT” (PLANBIO COSMETICS SRL, priority 2022, published 2025).

The data set deals with HaCaT cells. Put plainly: Cellular viability of HaCaT cells by MTS colorimetric assay. The settings on record: 24 hours. The class given is cell-based, human. On the procedure:
The aim of this study was to evaluate in vitro the effect of GExtract NdT (obtained in Example 1) on the viability of the human keratinocyte cell line HaCaT. The evaluation was performed on cells exposed to GExtract NdT at a dilution of 2% in complete medium for 24 hours. The cellular viability was measured by MTS colorimetric essay through the absorbance measurement obtained from the conversion of a bioreduced tertazolium compound from viable cells into a coloured formazan soluble in the culture medium. The HaCaT cells were exposed for 24 hours to 2% of GExtract NdT of and Triton-X 100 and subsequently the viability was evaluated by MTS assay.

For the substance TRITON-X 100, the “Concentration from which the surfactant lysed all the cells” value is on record as ≥ 0.01%. Where the note is “0.005% (v/v)”, the “% CTR (cell viability, percentage normalized on the control group)” value amounted to 52.098%. For the same substance, the “% CTR (cell viability, percentage normalized on the control group)” value (0.01% (v/v)) was 0%. For the same substance, the “% CTR (cell viability, percentage normalized on the control group)” value (0.05% (v/v)) was found to be 0%. Besides, the “% CTR (cell viability, percentage normalized on the control group)” value (0.5% (v/v)) is recorded as 0%.
